Laboratory results reported in patent US20210330807A1, “NOVEL HYDROGEL CONJUGATES” (priority 2018, published 2021).

Assay: Stability of daptomycin in a transient daptomycin-linker hydrogel conjugate versus free daptomycin
Assay type: physicochemical
Conditions: pH 7.4 and 37° C.; at day seven; UPLC peak area ratio at 215 nm
Method: The relative stability of the covalently bound daptomycin in a transient daptomycin-linker hydrogel conjugate towards hydrolytic and other degradation pathways in comparison to free daptomycin was investigated. […] The supernatant of the carrier sample was exchanged five times within a week and the daptomycin purity in these samples was analyzed by UPLC. In parallel, analytical samples of the free daptomycin control solution were also analyzed by UPLC at the same incubation times. The purity of daptomycin in the samples was calculated as the ratio of the peak area of the intact daptomycin peak at 215 nm relative to the area sum of all daptomycin-related peaks identified at 215 nm.

Which “purity of the free daptomycin in the solution control sample” value does the source give for `CCCCCCCCCC(=O)N[C@@H](Cc1c[nH]c2ccccc12)C(=O)N[C@H](CC(N)=O)C(=O)N[C@@H](CC(=O)O)C(=O)N[C@@H]1C(=O)NCC(=O)N[C@@H](CCCN)C(=O)N[C@@H](CC(=O)O)C(=O)N[C@H](C)C(=O)N[C@@H](CC(=O)O)C(=O)NCC(=O)N[C@H](CO)C(=O)N[C@@H]([C@H](C)CC(=O)O)C(=O)N[C@@H](CC(=O)c2ccccc2N)C(=O)O[C@@H]1C` [daptomycin] here?
The value was 72%.
